Reference: patent publication US6906175B2, “Production of adenine nucleotide translocator (ANT), novel ANT ligands and screening assays therefor” (priority 1998, dated 2005)

What was measured:
[1] = molecular target: T1, bovine mitochondria (ANT) (Bos taurus, UniProt P02722); assay: 125I-compound 24 competition binding (Tube Assay), beef heart mitochondria; details: for competitive inhibition of 125I-compound 24 binding (in words): FIGS. 11, 13, 16
T1 construct: from tissue; host or cells: bovine heart mitochondria
T1 sequence (P02722 2-298 limits assumed): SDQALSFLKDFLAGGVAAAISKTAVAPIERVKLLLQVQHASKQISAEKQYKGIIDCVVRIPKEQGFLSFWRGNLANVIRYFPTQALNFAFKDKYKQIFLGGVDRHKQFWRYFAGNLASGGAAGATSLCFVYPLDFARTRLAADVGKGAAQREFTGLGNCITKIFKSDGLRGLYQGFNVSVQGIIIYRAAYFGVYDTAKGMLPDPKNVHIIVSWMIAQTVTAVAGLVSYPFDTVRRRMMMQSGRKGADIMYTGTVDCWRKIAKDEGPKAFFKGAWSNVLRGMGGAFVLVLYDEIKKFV
Protocol: Bovine mitochondria were prepared as follows: Essentially all of the fat and cholesterol […] was removed from two bovine hearts which were then cut into 1-inch cubes. The cubes were ground in a meat grinder using the fine setting. Three hundred (300) […] portions of the ground heart were weighed out and, to each was added 400 ml of Isolation Buffer (IB; 250 mM sucrose, 1 mM sodium succinate, 0.2 mM K^+EDTA, 10 mM Tris-base, pH 7.8). (All buffers were filter sterilized, and column buffers were degassed, and, unless otherwise noted, all steps were carried out at 0 to 4° C. on ice or in pre-cooled rotors and centrifuges.) The preparations were mixed in a blender two times for 15 seconds on high setting and, in between and after blends, the pH was adjusted to 7.8 with 2M Tris-base. The homogenate was centrifuged for 20 minutes at 1,200×g, and the supernatant was poured through two layers of cheese cloth and adjusted to pH 7.8 with 2M Tris-base. The supernatant was then centrifuged for 30 minutes at […]. The supernatant was decanted, and the buff-colored outer pellet was dislodged with about 10 ml of IB and discarded. The brown inner pellet (heavy mitochondria) was resuspended in IB (about 10 ml per pellet). The pellets were homogenized in a glass-teflon homogenizer (2 passes at high drill speed). Samples were combined and centrifuged for 30 minutes at 11,000×g. The supernatant was decanted, and the pellets were resuspended in 60 ml of IB per 900 gm of ground heart. This centrifugation step was repeated and the pellets were finally resuspended in IB (60 ml per 900 gm of ground heart). One kilogram of beef heart typically yields about one (1) gram of mitochondria
The mitochondrial preparations were divided into aliquots (typically, 50μl for T. ni mitochondria or 20 μl for bovine mitochondria) and then either used directly in assays or flash frozen and stored at −80° C. The total protein content in the mitochondrial preparations was determined using the enhanced protocol (30 minutes at 60° C.; see http://www.ruf.rice.edu/˜bioslabs/methods/protein/BCA.html) of the bicinchoninic acid (BCA) assay (available in kit form from Pierce, Rockford, Ill.).
In the “Tube Assay,” mitochondria (from about 1 to 10 μg of total protein) were resuspended in 100 μl of Tris-KCl buffer with 0.1% BSA, pH 7.4. ^125I-labeled compound 24 (Example 11) was added to a final concentration of 0.5 nM. When used, competitors were added at these concentration ranges: unlabeled atractyloside or compound 24 final concentration from 5 nM to 10 μM; unlabeled ADP (a lower affinity competitor) was added at a final concentration of 500 nM to 1 mM.
The reaction mixes were incubated on ice for 60 minutes and then pelleted by centrifugation (approximately 16,000×g) for 11 minutes at 4° C.
Unbound ^125I-compound 24 was removed by aspiration. The pellets were contact-washed with Tris-KCl buffer, pH 7.4, and recentrifuged. The resultant pellets were aspirated and the radioactivity (dpm) in each was determined by gamma counting.

[2] = molecular target: T2, T. ni/huANT3 mitochondria (Homo sapiens, UniProt P12236); assay: 125I-compound 24 competition binding (Tube Assay), mitochondria from T. ni cells expressing huANT3; details: mitochondria from T. ni cells expressing huANT3; FIGS. 12, 14, 15
T2 construct: expressed in transfected cells; host or cells: Trichoplusia ni cells infected with recombinant baculovirus (cells prepared by PharMingen); isolated mitochondria
T2 sequence (P12236 1-298): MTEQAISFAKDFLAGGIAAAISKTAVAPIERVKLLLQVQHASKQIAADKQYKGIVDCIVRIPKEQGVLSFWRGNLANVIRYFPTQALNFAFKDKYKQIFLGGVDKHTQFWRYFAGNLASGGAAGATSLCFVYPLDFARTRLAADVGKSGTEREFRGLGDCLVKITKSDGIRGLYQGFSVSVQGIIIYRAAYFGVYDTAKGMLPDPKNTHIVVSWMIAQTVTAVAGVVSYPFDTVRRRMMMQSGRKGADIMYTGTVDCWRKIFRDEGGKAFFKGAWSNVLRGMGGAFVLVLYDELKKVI
Protocol: Atractyloside analogs (Example 6; Table 1; see also Examples 7-9) were also used in pseudo-homologous competition binding assays using T. ni/huANT3 mitochondria or bovine mitochondria. Mitochondria from noninfected T. ni cells, or T. ni cells infected with a baculovirus expressing huANT3 (see Example 3) were prepared as follows: […] cells were prepared by a subcontractor (PharMingen, San Diego, Calif.) as portions of about 250 mg of cells per tube. Each portion was suspended in 1 ml of MSB with protease inhibitors (leupeptin, final concentration 10 ug/ml; pepstatin, final concentration 10 ug/ml; aprotinin, final concentration, 2 ug/ml; phenylmethylsulfonyl fluoride, [PMSF], final concentration, 100 μM; all from Sigma Chemical Co., St. Louis, Mo.). The resuspended cell suspensions were frozen and thawed twice, then homogenized using a rotating teflon-coated probe and a close-fitting glass container (10 passes). The cellular homogenate was centrifuged (3,700 rpm, approximately 1,500×g) at 4° C. for 5 minutes; this supernatant from the first spin was saved. The pellet was washed with about 500 μl of MSB with protease inhibitors, centrifuged (3,800 rpm, approximately 1,600×g) at 4° C. for 5 minutes, and supernatant from this spin was combined with the supernatant from the first spin. […]
The mitochondrial preparations were divided into aliquots (typically, 50μl for T. ni mitochondria or 20 μl for bovine mitochondria) and then either used directly in assays or flash frozen and stored at −80° C. The total protein content in the mitochondrial preparations was determined using the enhanced protocol (30 minutes at 60° C.; see http://www.ruf.rice.edu/˜bioslabs/methods/protein/BCA.html) of the bicinchoninic acid (BCA) assay (available in kit form from Pierce, Rockford, Ill.). […]
Unbound ^125I-compound 24 was removed by aspiration. […] The resultant pellets were aspirated and the radioactivity (dpm) in each was determined by gamma counting.

[3] = molecular target: T3, His-tagged huANT3 (Homo sapiens, UniProt P12236); assay: 125I-compound 24 competition binding to recombinant His-tagged huANT3 immobilized on Ni beads; set-up: made in house; host or cells: baculovirus-infected Trichoplusia ni cells; mitochondria solubilized and captured on Ni-agarose beads (Qiagen); details: His-tagged huANT3 on Ni-agarose beads, 1 hour at 4° C.; FIG. 19
T3 sequence (P12236 1-298): T2 sequence (P12236 1-298)
Protocol: Competitive binding assays were also performed using recombinant His-tagged huANT3 (see Example 3) immobilized on Ni beads (FIG. 19) instead of mitochondria. To prepare the bead-immobilized huANT3, mitochondria from T. ni cells infected with a baculovirus expressing huANT3 (see Example 3) were solubilized with 0.5% O-glucopyranoside in the presence of 0.5 nM ^125I-compound 24 Ni-agarose beads (Qiagen, Hilden, Germany), and various concentrations of ATR or BKA as unlabeled competitors. After 1 hour at 4° C., the beads were washed and radioactivity that remained associated with the beads was counted.

Structure (SMILES)	competitive inhibition of 125I-compound 24 binding (in words) [1]	competitive inhibition of 125I-compound 24 binding (in words) [2]	competitive inhibition of 125I-compound 24 binding (in words) [3]	IC50 ([1]; 0.5 nM 125I-compound 24, FIG. 18, read-out: IC50, competitive inhibition of 125I-compound 24 binding)
Nc1ncnc2c1ncn2[C@@H]1O[C@H](COP(=O)(O)OP(=O)(O)O)[C@@H](O)[C@H]1O [ADP, adenosine diphosphate]	low affinity	low affinity		
CO[C@H](C/C=C\C=C\CC/C=C/C[C@H](C)/C=C/C(=C\C(=O)O)CC(=O)O)/C(C)=C\C=C(/C)C(=O)O [BKA, bongkrekic acid]	effectively displaced labeled compound 24, albeit with a slightly lower affinity than unlabeled compound 24		effectively compete with compound 24	
CC(C)CC(=O)OC1C(OC2CC(C(=O)O)C3CCC45CC(CCC4C3(C)C2)C(C)C5O)OC(CO)C(OS(=O)(=O)O)C1OS(=O)(=O)O (centres unmarked) [compound 5, Dihydroatractyloside]				~3.3 µM
